# Patent US20050214328A1, “Methods of using and compositions comprising immunomodulatory compounds for the treatment and management of skin diseases or disorders” (priority 2004, published 2005)
# Where “and” joins values, the source holds several entries; their conditions need not be identical. Equal entries are not always repeated.
# Experiments:
# TNF-α [1] = experiment: Inhibition of TNF-α production following LPS-stimulation of human PBMC; assay type: cell-based; conditions: for IC50: human PBMC, LPS, read-out: IC50 for inhibiting production of TNF-α following LPS-stimulation of PBMC; for secretion of the pro-inflammatory cytokine TNF-α: in vitro
# Description: (§1) The pharmacological properties of 3-(4-amino-1-oxo-1,3-dihydro-isoindol-2-yl)-piperidine-2,6-dione or 4-(amino)-2-(2,6-dioxo-(3-piperidyl))-isoindoline-1,3-dione, including activity comparisons with thalidomide, are characterized in in vitro studies. Studies examined the effects of 3-(4-amino-1-oxo-1,3-dihydro-isoindol-2-yl)-piperidine-2,6-dione, 4-(amino)-2-(2,6-dioxo-(3-piperidyl))-isoindoline-1,3-dione or thalidomide on the production of various cytokines.
# (§2) Inhibitions of TNF-α production following LPS-stimulation of human PBMC and human whole blood by an immunomodulatory compound such as 3-(4-amino-1-oxo-1,3-dihydro-isoindol-2-yl)-piperidine-2,6-dione, 4-(amino)-2-(2,6-dioxo-(3-piperidyl))-isoindoline-1,3-dione or thalidomide were investigated in vitro.
# wrinkles = experiment: Clinical study in patients with wrinkles; assay type: in vivo, human; conditions: oral about 5 mg daily, continuous
# Protocol: (§3) 3-(4-Amino-1-oxo-1,3-dihydro-isoindol-2-yl)-piperidine-2,6-dione or 4-(amino)-2-(2,6-dioxo-(3-piperidyl))-isoindoline-1,3-dione is administered in an amount of from about 1 to about 25 mg per day to reduce or correct wrinkles of patients. For example, clinical studies are performed for 3-(4-amino-1-oxo-1,3-dihydro-isoindol-2-yl)-piperidine-2,6-dione in patients with wrinkles. Patients receive continuous treatment with the compound at a oral dose of about 5 mg daily.
# T-cells = experiment: Proliferation of T-cells following primary induction by T-cell receptor (TCR) activation; assay type: cell-based; conditions: in vitro
# Description: as §1
# IL1β = experiment: LPS-stimulated production of IL1β by PBMC; assay type: cell-based; conditions: for secretion of the pro-inflammatory cytokine IL1β: in vitro
# Description: as §1
# IFN-γ = IFN-γ production following TCR activation of T-cells; assay type: cell-based; conditions: in vitro
# Description: as §1
# IL6 = experiment: LPS-stimulated production of IL6 by PBMC; assay type: cell-based; conditions: for secretion of the pro-inflammatory cytokine IL6: in vitro
# Description: as §1
# TNF-α mRNA = experiment: Degradation of TNF-α mRNA; assay type: cell-based; conditions: in vitro
# Description: as §1
# TNF-α [2] = experiment: Inhibition of TNF-α production following LPS-stimulation of human whole blood; assay type: cell-based; conditions: read-out: IC50 for inhibiting production of TNF-α following LPS-stimulation of human whole blood
# Description: as §2
# IL2 = IL2 production following TCR activation of PBMC; assay type: cell-based; conditions: in vitro
# Description: as §1
# [3] = tested on: actinic or senile keratoses; experiment: Clinical study in patients with actinic or senile keratoses; assay type: in vivo, human; conditions: oral 25 mg daily, continuous, baseline vs after eight weeks, FIG. 1
# Protocol: as §3, with “patients with keratoses for eight weeks, and the responses are subsequently assessed.” for “reduce or correct wrinkles of patients.”, “actinic or senile keratoses.” for “wrinkles.”, “25” for “about 5”
# [4] = tested on: cardiovascular and respiratory functions; conditions: dog, in vivo; for arterial blood pressure: 2 mg/kg
# Protocol: In addition, a safety pharmacology study of 3-(4-amino-1-oxo-1,3-dihydro-isoindol-2-yl)-piperidine-2,6-dione or 4-(amino)-2-(2,6-dioxo-(3-piperidyl))-isoindoline-1,3-dione was conducted in dogs. The effects of the compound on cardiovascular and respiratory functions were examined in anesthetized dogs. One group of Beagle dogs (2/sex/group) received three doses of vehicle only and the other received three ascending doses of 2, 10 and 20 mg/kg of the compound. […] The cardiovascular and respiratory changes induced by the compound were minimal at all doses when compared to the vehicle control group.
# acne = experiment: Clinical study in acne; assay type: in vivo, human; conditions: oral about 5 mg daily, continuous
# Protocol: 3-(4-Amino-1-oxo-1,3-dihydro-isoindol-2-yl)-piperidine-2,6-dione or 4-(amino)-2-(2,6-dioxo-(3-piperidyl))-isoindoline-1,3-dione is administered in an amount of from about 1 to about 25 mg per day to treat acne. Patients receive continuous treatment with the compound at a oral dose of about 5 mg daily.
# IL10 = experiment: Production of anti-inflammatory cytokine IL10 by PBMC; assay type: cell-based; conditions: for production of the anti-inflammatory cytokine IL10: PBMC; for secretion of the anti-inflammatory cytokine IL10: in vitro
# Description: as §1
# [5] = cited from earlier work; for interconversion in acetone: acetone (and other anhydrous) solvent systems
structure (smiles),measurement,setting,value
"Nc1cccc2c1CN(C1CCC(=O)NC1=O)C2=O (stereo not shown) [3-(4-amino-1-oxo-1,3-dihydro-isoindol-2-yl)-piperidine-2,6-dione]",LPS-stimulated production of TNF-α by PBMC,TNF-α [1],dose-dependent inhibition
same,IC50,TNF-α [1],~100 nM and 0.0259 µg/mL
same,secretion of the pro-inflammatory cytokine TNF-α,TNF-α [1],markedly inhibited
same,clinical response in patients with wrinkles,wrinkles,remarkable clinical benefit
same,T-cell proliferation,T-cells,induced
same,LPS-stimulated production of IL1β by PBMC,IL1β,dose-dependent inhibition
same,secretion of the pro-inflammatory cytokine IL1β,IL1β,markedly inhibited
same,IFN-γ production,IFN-γ,induced
same,LPS-stimulated production of IL6 by PBMC,IL6,dose-dependent inhibition
same,secretion of the pro-inflammatory cytokine IL6,IL6,markedly inhibited
same,degradation of TNF-α mRNA,TNF-α mRNA,enhanced
same,IC50,TNF-α [2],~480 nM and 0.104 µg/mL
same,IL2 production,IL2,induced
same,clinical response in patients with actinic or senile keratoses,[3],remarkable clinical benefit
same,"deviations in femoral blood flow, respiratory parameters and QTc interval",[4],not considered treatment-related
same,arterial blood pressure,[4],small transient increase
same,acne (size and number of visible cutaneous infections and/or pimples),acne,significant improvements
same,production of the anti-inflammatory cytokine IL10,IL10,increased
same,secretion of the anti-inflammatory cytokine IL10,IL10,increased
"Nc1cccc2c1C(=O)N(C1CCC(=O)NC1=O)C2=O (stereo not shown) [4-(amino)-2-(2,6-dioxo(3-piperidyl))-isoindoline-1,3-dione]",LPS-stimulated production of TNF-α by PBMC,TNF-α [1],dose-dependent inhibition
same,IC50,TNF-α [1],~24 nM and 0.00655 µg/mL
same,secretion of the pro-inflammatory cytokine TNF-α,TNF-α [1],markedly inhibited
same,T-cell proliferation,T-cells,induced
same,LPS-stimulated production of IL1β by PBMC,IL1β,dose-dependent inhibition
same,secretion of the pro-inflammatory cytokine IL1β,IL1β,markedly inhibited
same,IFN-γ production,IFN-γ,induced
same,LPS-stimulated production of IL6 by PBMC,IL6,dose-dependent inhibition
same,secretion of the pro-inflammatory cytokine IL6,IL6,markedly inhibited
same,degradation of TNF-α mRNA,TNF-α mRNA,enhanced
same,IC50,TNF-α [2],~25 nM and 0.00683 µg/mL
same,IL2 production,IL2,induced
same,"deviations in femoral blood flow, respiratory parameters and QTc interval",[4],not considered treatment-related
same,arterial blood pressure,[4],small transient increase
same,acne (size and number of visible cutaneous infections and/or pimples),acne,significant improvements
same,production of the anti-inflammatory cytokine IL10,IL10,increased
same,secretion of the anti-inflammatory cytokine IL10,IL10,increased
"Nc1cccc2c1CN(C1CCC(=O)NC1=O)C2=O (stereo not shown) [Form B, 3-(4-amino-1-oxo-1,3 dihydro-isoindol-2-yl)-piperidene-2,6-dione]",form conversion upon heating,[5]; 175° C. for about five minutes,convert to Form F
same,interconversion in acetone,[5],converts to other forms
same,form stability / interconversion in aqueous solvent systems,[5]; aqueous solvent systems,converts to Form E
"Nc1cccc2c1CN(C1CCC(=O)NC1=O)C2=O (stereo not shown) [Form C, 3-(4-amino-1-oxo-1,3 dihydro-isoindol-2-yl)-piperidene-2,6-dione]",hygroscopicity,[5]; below about 85% RH,not hygroscopic
same,form conversion at higher relative humidities,[5],can convert to Form B
"Nc1cccc2c1CN(C1CCC(=O)NC1=O)C2=O (stereo not shown) [Form D, 3-(4-amino-1-oxo-1,3 dihydro-isoindol-2-yl)-piperidene-2,6-dione]",form conversion at higher relative humidities,[5],convert to Form B
"Nc1cccc2c1CN(C1CCC(=O)NC1=O)C2=O (stereo not shown) [Form E, 3-(4-amino-1-oxo-1,3 dihydro-isoindol-2-yl)-piperidene-2,6-dione]",interconversion in THF,[5]; THF solvent system,Form G
same,form conversion upon heating (desolvation),[5]; about 125° C. for about five minutes,convert to Form B
same,interconversion in acetone,[5],convert to Form C
"O=C1CCC(N2C(=O)c3ccccc3C2=O)C(=O)N1 (stereo not shown) [Thalidomide, thalidomide, reference compound]",IC50,TNF-α [1],50.1 µg/mL
